Like-named read-outs stand apart in the source and are kept apart here.
Legend:
[1] = biological target: SHP1 (Homo sapiens (Human), UniProt P29350); assay: pNPP inhibition assay against SHP1; assay type: biochemical; details: pNPP at Km of the PTP
[2] = biological target: PTP1B (Homo sapiens (Human), UniProt P18031); assay: pNPP inhibition assay against PTP1B; assay type: biochemical; details: pNPP at Km of the PTP
[3] = biological target: SHP2 (Homo sapiens (Human), UniProt Q06124); assay: pNPP inhibition assay against SHP2; assay type: biochemical; details: pNPP at Km of the PTP
Sequence of SHP2 (Q06124 247-517): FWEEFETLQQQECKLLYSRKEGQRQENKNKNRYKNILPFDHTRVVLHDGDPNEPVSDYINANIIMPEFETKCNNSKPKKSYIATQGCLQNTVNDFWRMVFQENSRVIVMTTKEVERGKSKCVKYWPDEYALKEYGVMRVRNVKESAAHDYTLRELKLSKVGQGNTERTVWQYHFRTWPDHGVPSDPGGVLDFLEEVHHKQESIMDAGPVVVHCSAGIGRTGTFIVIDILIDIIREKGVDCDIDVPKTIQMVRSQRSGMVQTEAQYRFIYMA

[4] = biological target: mPTPB (Mycobacterium tuberculosis (strain ATCC 25618 / H37Rv), UniProt I6WXK4); assay type: biochemical
Sequence of mPTPB (I6WXK4 whole entry, looked up): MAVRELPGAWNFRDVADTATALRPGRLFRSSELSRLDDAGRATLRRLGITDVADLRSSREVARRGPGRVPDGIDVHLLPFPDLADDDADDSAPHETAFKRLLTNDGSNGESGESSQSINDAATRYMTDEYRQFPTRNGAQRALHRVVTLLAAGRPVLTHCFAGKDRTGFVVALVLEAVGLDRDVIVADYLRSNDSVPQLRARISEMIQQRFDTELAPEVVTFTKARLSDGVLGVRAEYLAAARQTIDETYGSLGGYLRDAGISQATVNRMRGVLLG

[5] = Mouse liver microsomal stability; assay type: in vitro ADME; details: Mouse, after 60 min at 37° C.
Text: A sufficient oral dosage must survive first-pass clearance through the liver before reaching its biological target. The majority of drugs/xenobiotics undergo phase I metabolism, mediated by the cytochrome P450 (CYP450) family of heme-thiolate proteins predominantly in the liver. Although mouse liver microsomal (MLM) stability studies are not a perfect substitute for in vivo metabolic clearance studies, but they serve as an initial […] model system that can correlate well with human liver microsomal (HLM) stability and in vivo activity in mice. To this end, compounds 4h, 4k, 4t, 4u, and 4v were allowed to react with mouse liver microsomes and the fraction of remaining parent compound over time was determined. […] Incorporation of fluorine into drug candidates generally improves their potency, bioavailability, and metabolic stability. In addition, fluorinated molecules are in general, nontoxic and mimic the corresponding nonfluorinated analogs in their stereoelectronic properties, so the drug's affinity for the receptor either remains the same or, in some cases increases. […] So, the loss of compounds tested here is attributed only to oxidative Phase I metabolism. The high microsomal stability of these compounds could be exploited pharmacologically.
Mouse (CD-1) pooled liver microsomes purchased from Fisher Scientific, IL, USA (0.5 mg/mL, Corning Gentest 3P, cat#452702), and the assay procedures were followed as previously reported. A solution of mouse liver microsomes and 1 mM of co-factor NADPH in 1 ml of phosphate buffer saline (pH=7.4) was prewarmed to 37° C. in an Eppendorf tube. Then 10 μL of a test solution (10 mM DMSO stock) was added to initiate the reaction. Verapamil-HCl was used as a positive control. […] The incubation mixture was kept at 37° C., and 50 μL aliquots were taken at times of 0, 5, 10, 15, 30 or 60 min. Each of the aliquot was quenched using 200 μL of ice-cold acetonitrile. The mixtures were vigorously vortexed and centrifuged to remove the precipitated protein and the supernatants were analyzed by an Agilent Technologies 6470 series, triple quadrupole LC/MS spectrometer to quantitate the remaining parent compound. The percent of the parent compound remaining was calculated from the formula: % parent compound remaining=(concentration at 60 min/concentration at 0 min)*100

[6] = pNPP assay, pH 7.0, 3.0 mM pNPP

Sequence of SHP1 (P29350 244-515): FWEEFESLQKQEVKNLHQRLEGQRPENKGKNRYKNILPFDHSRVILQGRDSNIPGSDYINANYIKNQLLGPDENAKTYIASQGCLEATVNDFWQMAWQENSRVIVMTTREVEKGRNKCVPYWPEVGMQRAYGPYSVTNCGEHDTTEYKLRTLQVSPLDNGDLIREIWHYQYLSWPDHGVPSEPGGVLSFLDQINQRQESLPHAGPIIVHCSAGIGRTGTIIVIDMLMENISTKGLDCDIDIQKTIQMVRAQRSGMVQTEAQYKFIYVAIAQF
Sequence of PTP1B (P18031 3-277): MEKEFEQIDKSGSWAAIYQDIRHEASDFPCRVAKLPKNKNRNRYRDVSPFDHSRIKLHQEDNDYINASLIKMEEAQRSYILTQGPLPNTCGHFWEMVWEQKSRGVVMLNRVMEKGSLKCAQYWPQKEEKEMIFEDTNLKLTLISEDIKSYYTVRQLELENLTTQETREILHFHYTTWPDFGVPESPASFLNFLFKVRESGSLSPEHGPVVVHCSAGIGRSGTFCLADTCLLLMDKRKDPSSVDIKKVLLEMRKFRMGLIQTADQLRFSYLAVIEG

Row | Compound | IC50 [1] | IC50 [2] | IC50 [3] | IC50 [4] | fold less potency compared to corresponding alkyne analogs 4 and 4k [4] | difference in IC50 values with and without Triton X-100 and with preincubation [4] | IC50 [4, 6] | fold more potency compared to the meta derivative 5 [4] | Microsome Stability, % remaining [5]
1 | CC(C)(C)OC(=O)Nc1ccc(C#Cc2ccc(NC(=O)C(=O)O)cc2)cc1 [Compound 4s, 2-((4-((4-((tert-butoxycarbonyl)amino)phenyl)ethynyl)phenyl)amino)-2-oxoacetic Acid] | > 50 µM | > 50 µM | > 50 µM | – | – | – | – | – | –
2 | O=C(O)C(=O)Nc1ccc(/C=C\c2ccc(C(F)(F)F)cc2)cc1 [Compound 10, (Z)-2-oxo-2-((4-(4-(trifluoromethyl)styryl)phenyl)amino)acetic Acid] | – | > 30 µM | > 30 µM | 0.684 ± 0.025 µM | 45 fold | – | – | – | –
3 | O=C(O)C(=O)Nc1ccc(C#Cc2cc(C(F)(F)F)cc(C(F)(F)F)c2)cc1 [Compound 4p, 2-((4-((3,5-bis(trifluoromethyl)phenyl)ethynyl)phenyl)amino)-2-oxoacetic Acid] | > 50 µM | > 50 µM | > 50 µM | 0.06 ± 0.009 µM | – | no significant difference | – | – | –
4 | O=C(O)C(=O)Nc1ccc(C#Cc2ccc(C(F)(F)F)cc2C(F)(F)F)cc1 [Compound 4x, 2-((4-((2,4-bis(trifluoromethyl)phenyl)ethynyl)phenyl)amino)-2-oxoacetic Acid] | > 30 µM | > 30 µM | > 30 µM | – | – | – | – | – | –
5 | O=C(O)C(=O)Nc1ccc(CCc2ccccc2)cc1 [Compound 11, 2-oxo-2-((4-phenethylphenyl)amino)acetic Acid] | – | > 30 µM | > 30 µM | 1.27 ± 0.2 µM | 5 fold | – | – | – | –
6 | COC(=O)c1cc(C#Cc2cccc(NC(=O)C(=O)O)c2)c(N(C)C)cc1O [Compound 4e, 2-((3-((2-(dimethylamino)-4-hydroxy-5-(methoxycarbonyl)phenyl)ethynyl)phenyl)amino)-2-oxoacetic Acid] | > 50 µM | > 50 µM | > 50 µM | – | – | – | – | – | –
7 | N#Cc1ccc(C#Cc2ccc(NC(=O)C(=O)O)cc2)cc1 [Compound 4o, 2-((4-((4-cyanophenyl)ethynyl)phenyl)amino)-2-oxoacetic Acid] | > 50 µM | > 50 µM | > 50 µM | – | – | – | – | – | –
8 | O=C(O)C(=O)Nc1ccc(C#Cc2ccc(OC(F)(F)F)cc2)cc1 [Compound 4i, 2-oxo-2-((4-((4-(trifluoromethoxy)phenyl)ethynyl)phenyl)amino)acetic Acid] | > 50 µM | > 50 µM | > 50 µM | – | – | – | – | – | –
9 | O=C(O)C(=O)Nc1cccc(-c2ccccc2)c1 [Compound 7, 2-([1,1′-biphenyl]-3-ylamino)-2-oxoacetic Acid] | – | > 100 µM | > 100 µM | – | – | – | – | – | –
10 | O=C(O)C(=O)Nc1ccc(-c2ccccc2)cc1 [Compound 6, 2-([1,1′-biphenyl]-4-ylamino)-2-oxoacetic Acid] | – | 62 ± 5 µM | 29 ± 8 µM | – | – | – | – | – | –
11 | O=C(O)C(=O)Nc1cnc2ccccc2c1 [Compound 8, 2-oxo-2-(quinolin-3-ylamino)acetic Acid] | – | > 100 µM | > 100 µM | – | – | – | > 10 µM | – | –
12 | O=C(O)C(=O)Nc1ccc(CCc2ccc(C(F)(F)F)cc2)cc1 [Compound 12, 2-oxo-2-((4-(4-(trifluoromethyl)phenethyl)phenyl)amino)acetic Acid] | – | > 30 µM | > 30 µM | 0.197 ± 0.013 µM | 13 fold | – | – | – | –
13 | O=C(O)C(=O)Nc1ccc(C#Cc2cccc(C(F)(F)F)c2)cc1 [Compound 4j, 2-oxo-2-((4-((3-(trifluoromethyl)phenyl)ethynyl)phenyl)amino)acetic Acid] | > 50 µM | 29.5 ± 4.1 µM | > 50 µM | – | – | – | – | – | –
14 | O=C(O)C(=O)Nc1ccc(C#Cc2ccccc2)cc1 [Compound 4, 2-oxo-2-((4-(phenylethynyl)phenyl)amino)acetic Acid] | > 100 µM | > 100 µM | > 100 µM | 0.257 ± 0.008 µM | – | – | – | 2 fold | –
15 | COC(=O)c1cc(C#Cc2ccc(NC(=O)C(=O)O)cc2)ccc1O [Compound 4b, 2-((4-((4-hydroxy-3-(methoxycarbonyl)phenyl)ethynyl)phenyl)amino)-2-oxoacetic Acid] | > 50 µM | > 50 µM | 27.3 ± 3.3 µM | – | – | – | 0.025 ± 0.003 µM | – | –
16 | CC(C)(C)OC(=O)NCC#Cc1ccc(NC(=O)C(=O)O)cc1 [Compound 3, 2-((4-(3-((tert-butoxycarbonyl)amino)prop-1-yn-1-yl)phenyl)amino)-2-oxoacetic Acid] | – | > 100 µM | 58 ± 2 µM | – | – | – | – | – | –
17 | COC(=O)c1ccc(C#Cc2ccc(NC(=O)C(=O)O)cc2)cc1O [Compound 4c, 2-((4-((3-hydroxy-4-(methoxycarbonyl)phenyl)ethynyl)phenyl)amino)-2-oxoacetic Acid] | > 50 µM | > 50 µM | > 50 µM | – | – | – | – | – | –
18 | NS(=O)(=O)c1ccc(C#Cc2ccc(NC(=O)C(=O)O)cc2)cc1 [Compound 4l, 2-oxo-2-((4-((4-sulfamoylphenyl)ethynyl)phenyl)amino)acetic Acid] | 29.9 ± 3.3 µM | > 50 µM | > 50 µM | – | – | – | – | – | –
19 | C#Cc1ccc(NC(=O)C(=O)O)cc1 [Compound 2, 2-((4-ethynylphenyl)amino)-2-oxoacetic Acid] | – | > 100 µM | > 100 µM | – | – | – | – | – | –
20 | O=C(O)C(=O)Nc1ccc(C#Cc2ccc(C(F)(F)F)cc2Br)cc1 [Compound 4u, 2-((4-((2-bromo-4-(trifluoromethyl)phenyl)ethynyl)phenyl)amino)-2-oxoacetic Acid] | 33.8 ± 6.8 µM | 16.4 ± 2.9 µM | 15.2 ± 3.4 µM | – | – | – | – | – | 60 ± 3.8%
21 | O=C(O)C(=O)Nc1ccc(/C=C\c2ccccc2)cc1 [Compound 9, (Z)-2-oxo-2-((4-styrylphenyl)amino)acetic Acid] | – | > 30 µM | > 30 µM | 0.77 ± 0.015 µM | 3 fold | – | – | – | –
22 | O=C(O)C(=O)Nc1ccccc1 [Compound 1, Oxanilic Acid] | – | > 100 µM | > 100 µM | – | – | – | – | – | –
23 | COC(=O)c1cc(C#Cc2ccc(NC(=O)C(=O)O)cc2)c(N(C)C)cc1O [Compound 4d, 2-((4-((2-(dimethylamino)-4-hydroxy-5-(methoxycarbonyl)phenyl)ethynyl)phenyl)amino)-2-oxoacetic Acid] | > 50 µM | > 50 µM | > 50 µM | – | – | – | 0.03 ± 0.009 µM | – | –
24 | O=C(O)C(=O)Nc1ccc(C#Cc2ccc(O)cc2)cc1 [Compound 4m, 2-((4-((4-hydroxyphenyl)ethynyl)phenyl)amino)-2-oxoacetic Acid] | > 50 µM | > 50 µM | > 50 µM | – | – | – | – | – | –
25 | O=C(O)C(=O)Nc1ccc(C#Cc2ccc(C(F)(F)F)cc2F)cc1 [Compound 4v, 2-((4-((2-fluoro-4-(trifluoromethyl)phenyl)ethynyl)phenyl)amino)-2-oxoacetic Acid] | > 30 µM | > 30 µM | > 30 µM | – | – | – | – | – | 72 ± 2.8%
26 | N#Cc1cc(C(F)(F)F)ccc1C#Cc1ccc(NC(=O)C(=O)O)cc1 [Compound 4w, 2-((4-((2-cyano-4-(trifluoromethyl)phenyl)ethynyl)phenyl)amino)-2-oxoacetic Acid] | 13.7 ± 3.1 µM | 27.4 ± 6.3 µM | 10.6 ± 2.5 µM | – | – | – | – | – | –
27 | O=C(O)C(=O)Nc1ccc(C#Cc2ccc(O)c(Br)c2)cc1 [Compound 4n, 2-((4-((3-bromo-4-hydroxyphenyl)ethynyl)phenyl)amino)-2-oxoacetic Acid] | > 50 µM | > 50 µM | 44.5 ± 3.4 µM | – | – | – | – | – | –
28 | COC(=O)c1ccc(C#Cc2ccc(NC(=O)C(=O)O)cc2)cc1 [Compound 4a, 2-((4-((4-(methoxycarbonyl)phenyl)ethynyl)phenyl)amino)-2-oxoacetic Acid] | > 100 µM | > 100 µM | 52.6 ± 6.4 µM | – | – | – | 0.023 ± 0.004 µM | – | –
29 | CN(C)c1cc(O)c(C(=O)O)cc1C#Cc1ccc(NC(=O)C(=O)O)cc1 [Compound 4f, 5-((4-(carboxyformamido)phenyl)ethynyl)-4-(dimethylamino)-2-hydroxybenzoic Acid] | 59.3 ± 6 µM | > 100 µM | 78.5 ± 4.2 µM | – | – | – | 0.09 ± 0.008 µM | – | –
30 | O=C(O)C(=O)Nc1cccc(C#Cc2ccccc2)c1 [Compound 5, 2-oxo-2-((3-(phenylethynyl)phenyl)amino)acetic Acid] | – | > 100 µM | 69 ± 4 µM | – | – | – | – | – | –

From patent US11192850B2, “N-aryl oxamic acids” (Purdue Research Foundation, priority 2020, dated 2021)
